Source: patent US8940340B2, “Systems and methods for maintaining the dominance of Nannochloropsis in an algae cultivation system” (Aurora Algae, Inc., priority 2009, dated 2015)

How the values were obtained:
[1] = test system: Nannochloropsis; assay: hypochlorite kill curve: dry biomass productivity of laboratory Nannochloropsis cultures; type: cell-based; settings: for Mean Productivity of Nannochloropsis: daily addition
Method: Algal cultivation: 800 ml cultures are maintained in one inch thick Roux flasks with continuous magnetic stirring. Continuous illumination at 700 MicroEinsteins per meter squared per second is provided by four 54-watt T5 fluorescent bulbs rated with a correlated color temperature of […]. 1% CO2 is bubbled through […] rate sufficient to maintain a pH between 7.0 and 8.5. Photoautotrophic growth is maintained on UFM media formulated with artificial seawater (35 g/L Instant Ocean) containing 720 mg/L urea, 168 mg/L K2HPO4, 1.5 ml/L of a metals solution and 1 ml/L of a vitamin solution. The metals solution contains 39.7 g/L Fe(III)Cl3(6H2O), 30.0 g/L EDTA, 1.2 g/L MnCl2(4H2O), 0.08 g/L CoCl2(6H2O), 0.16 g/L ZnSO4(7H2O), 0.067 g/L CuSO4(5H2O), 0.023 g/L Na2MoO4(2H2O). The vitamins solution contains 0.001 g/L vitamin B12, 0.001 g/L Biotin, and 0.2 g/L Thiamine. Cultures are diluted by exchanging 400 ml of culture with fresh media every day at the same time. From the 400 ml that are removed, the dry biomass concentration is determined as below. Determination of culture biomass concentration: A sample of the culture between 0.5 and five milliliters is vacuum filtered through a pre-rinsed and pre-ashed Whatman GF/C glass microfiber filter disc. The cake is rinsed with twenty milliliters of 0.7M ammonium formate and dried for at least 2 hours at 105° C. The dried sample is weighed on an analytical balance and then ashed at 550° C. for at least 1 hour. The post ash weight is subtracted from the pre-ash weight and divided by the volume of the sample to get the ash-free dry biomass density in milligrams per milliliter. Given the dilution volume and the previous day's dry biomass concentration, the current day's dry biomass concentration can be used to establish the culture's dry biomass productivity in grams per liter per day. This productivity value can then be compared across different experimental conditions. For the hypochlorite kill curve, four cultures are measured for productivity as above, each of which receives a different dose of sodium hypochlorite with the fresh media that is added at dilution time. The final concentration of sodium hypochlorite following dilution for each of the four cultures is 0, 20, 40 and 80 milligrams per liter.

[2] = test system: Nannochloropsis; assay: outdoor open pond cultivation with chlorine addition (condition four)
Method: Chlorine compounds may be added directly to the cultivation vessel. They may be added to the water of dilution of the cultivation vessel. In either case they may be added in solid (granular) form, liquid form, or as chlorine gas. In experiments performed by the inventors, the chlorine was added as a liquid (e.g., sodium hypochlorite). Typically, 10-12% solutions of sodium hypochlorite were diluted 10 to 100 fold and added directly to the cultivation reactor to achieve the initial concentration of sodium hypochlorite cited in each case.
(§1) In the following examples, Nannochloropsis was grown in outdoor, open, ponds in Vero Beach, Fla. The climate in Vero Beach is semitropical, with mild winters and hot, humid summers. It is a challenging climate for keeping outdoor algal cultures stable and productive. The overnight warmth encourages predation by protozoa, rotifers, and crustaceans. The humidity allows the airborne transport of competing algae, and thus increases the rate of invasion. In some of the examples the techniques applied were successful in keeping Nannochloropsis as the dominant alga, at ninety-five percent (95%) to nearly one-hundred percent (100%) of the algal biomass, even when competitors and/or predators were intentionally introduced to the algae cultivation system. In some cases, predators were undetectable most of the time, even after they were intentionally introduced.
Ten ponds (four 1.4 square meter, four 3 square meter, and two approximately 200 square meter) were used to test many conditions of salinity and chlorination over fifteen months. Not all of the conditions were run for that whole time period. The results from the following seven conditions are summarized below: 1) 35-36 PPT (full) seawater salinity, 2) 28-30 PPT (dilution of full seawater with fresh water in a ratio of 3:1), 3) 22-24 PPT (dilution of full seawater with fresh water in a ratio of about 2:1), 4) condition no. 3 with chlorine added to the pond every other day to an initial concentration of sodium hypochlorite of 3 ppm, 5) 10-12 PPT (dilution of full seawater with fresh water in a ratio of about 1:2), 6) 5-7 PPT (dilution of full seawater with fresh water in a ratio of about 1:6. and 7) about 1 PPT (dilution of seawater with fresh water in a ratio of about 1:40).
Condition four was run from Oct. 4, 2007 until Jun. […] Commercial chlorine solutions were added to the algae cultivation systems every other day to obtain an initial concentration of 2.5-3 mg of sodium hypochlorite. […] The Nannochloropsis was cultivated without interruption and at greater than 95% dominance, throughout the entire cultivation period (over eight months). […] Species added included Tetraselmis and Dunaliella, along with amoeba, protozoa, and crustaceans. The Tetraselmis and Dunaliella cultures were decimated by the predators. The predators were not observable in the Nannochloropsis cultures after a few days.

[3] = test system: predators (amoeba, protozoa, and crustaceans); assay: outdoor open pond cultivation with chlorine addition: growth of introduced predators; settings: 2.5-3 mg every other day, 22-24 PPT
Method: as §1
Ten ponds (four 1.4 square meter, four 3 square meter, and two approximately 200 square meter) were used to test many conditions of salinity and chlorination over fifteen months. Not all of the conditions were run for that whole time period. The results from the following seven conditions are summarized below: 1) 35-36 PPT (full) seawater salinity, 2) 28-30 PPT (dilution of full seawater with fresh water in a ratio of 3:1), 3) 22-24 PPT (dilution of full seawater with fresh water in a ratio of about 2:1), 4) condition no. […]

For OCl [sodium hypochlorite], the “survival of Nannochloropsis cultures after extremely high exposure” value ([1]; above 80 milligrams/liter, exposure not prolonged) was “recover”, the “productivity of Nannochloropsis in the first two days following administration” value ([1]; at least 80 milligrams/liter) was “zero productivity” and the “time for Nannochloropsis to recover after shock injection” value ([1]; shock amount, initial concentration 40-80 milligrams/liter or higher) was “two to three”. For the same compound, the “Mean Productivity of Nannochloropsis” value ([1]; sodium hypochlorite 20 Milligrams/Liter) was 570 Milligrams/Liter/Day, the “Mean Productivity of Nannochloropsis” value ([1]; sodium hypochlorite 40 Milligrams/Liter) was 460 Milligrams/Liter/Day and the “Mean Productivity of Nannochloropsis” value ([1]; sodium hypochlorite 80 Milligrams/Liter) was 0 Milligrams/Liter/Day. The “Nannochloropsis dominance throughout the cultivation period” value ([2]; 2.5-3 mg every other day, 22-24 PPT, over eight months) was “greater than 95%”, the “contamination versus non-chlorinated cultures at the same salinity” value ([2]; 22-24 PPT, cooler months) was “no observable difference” and the “contamination versus non-chlorinated cultures at the same salinity” value ([2]; 22-24 PPT, warmer months of the year) was “less contamination than non-chlorinated cultures”. For the same compound, the “culture stability over the run” value ([2]; condition four, about 250 days) was “without stability problems”, the “effect on productivity compared to condition three with no added chlorine” value ([2]; initial concentration 2.5-3 mg every other day, salinity 22-24 PPT) was “often had no effect on productivity” and the “growth of predators added to the chlorinated cultures” value [3] was “No predators were able to grow”.
